# Measurements published in ChEMBL document CHEMBL1201862, “PubChem BioAssay data set” (2004).
#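 Where inhibition never reached the appropriate level, the endpoint shown equals the highest concentration tested. Otherwise, values were interpolated linearly from a five-concentration, 48-hour dose response in 96-well plates. GI50 = concentration required for 50% inhibition of growth.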 Active and inactive are the calls of the source. Cut-off read from the data, not from the text of the source: active = GI50 up to about 1.1 µM and inactive = higher.
# Assays:
# Test in all cases: growth of human tumour cells (NCI), 48 h
# RXF 393 = tested on: RXF 393
# NCI-H522 = tested on: NCI-H522
# SK-MEL-5 = tested on: SK-MEL-5
# MDA-N = tested on: MDA-N
# OVCAR-3 = tested on: OVCAR-3
# HCT-15 = tested on: HCT-15
# SF-295 = tested on: SF-295
# PC-3 = tested on: PC-3
# TK-10 = tested on: TK-10
# BT-549 = tested on: BT-549
# SNB-75 = tested on: SNB-75
# 786-0 = tested on: 786-0
# U-251 = tested on: U-251
# T47D = tested on: T47D
# OVCAR-5 = tested on: OVCAR-5
# OVCAR-4 = tested on: OVCAR-4
# MDA-MB-231 = tested on: MDA-MB-231
# A549 = tested on: A549
# MCF7 = tested on: MCF7
# HOP-62 = tested on: HOP-62
# HCT-116 = tested on: HCT-116
# SF-268 = tested on: SF-268
# CAKI-1 = tested on: CAKI-1
# LOX IMVI = tested on: LOX IMVI
# DU-145 = tested on: DU-145
# CCRF-CEM = tested on: CCRF-CEM
# HCC 2998 = tested on: HCC 2998
# KM12 = tested on: KM12
# NCI-H23 = tested on: NCI-H23
# COLO 205 = tested on: COLO 205
# SK-OV-3 = tested on: SK-OV-3
# IGROV-1 = tested on: IGROV-1
# EKVX = tested on: EKVX
# NCI/ADR-RES = tested on: NCI/ADR-RES
# NCI-H460 = tested on: NCI-H460
# SK-MEL-2 = tested on: SK-MEL-2
# SN12C = tested on: SN12C
# K562 = tested on: K562
# ACHN = tested on: ACHN
# MOLT-4 = tested on: MOLT-4
# UACC-257 = tested on: UACC-257
# UACC-62 = tested on: UACC-62
# M14 = tested on: M14
# SNB-19 = tested on: SNB-19
# MDA-MB-435 = tested on: MDA-MB-435
# UO-31 = tested on: UO-31
# SR = tested on: SR
# OVCAR-8 = tested on: OVCAR-8
# HOP-92 = tested on: HOP-92
# HT-29 = tested on: HT-29
# RPMI-8226 = tested on: RPMI-8226
# SK-MEL-28 = tested on: SK-MEL-28
# SF-539 = tested on: SF-539
# HL-60 = tested on: HL-60
# A498 = tested on: A498
# Hs-578T = tested on: Hs-578T
# SW-620 = tested on: SW-620
# Malme-3M = tested on: Malme-3M
structure (smiles),measurement,setting,value
O=C(OCC(Cl)(Cl)Cl)N1CC[C@@H](C2CCCCC2)C1,GI50,RXF 393,18.3 µM (inactive)
same,GI50,NCI-H522,21.7 µM (inactive)
same,GI50,SK-MEL-5,18.1 µM (inactive)
same,GI50,MDA-N,31 µM (inactive)
same,GI50,OVCAR-3,18.1 µM (inactive)
same,GI50,HCT-15,18.7 µM
same,GI50,SF-295,19 µM (inactive)
same,GI50,PC-3,21.2 µM (inactive)
same,GI50,TK-10,30.1 µM (inactive)
same,GI50,BT-549,38.2 µM (inactive)
same,GI50,SNB-75,21.7 µM (inactive)
same,GI50,786-0,20.6 µM (inactive)
same,GI50,U-251,0.1 µM (active)
same,GI50,T47D,32.7 µM (inactive)
same,GI50,OVCAR-5,23.7 µM (inactive)
same,GI50,OVCAR-4,18.6 µM (inactive)
same,GI50,MDA-MB-231,43.3 µM (inactive)
same,GI50,A549,27.3 µM (inactive)
same,GI50,MCF7,22.1 µM (inactive)
same,GI50,HOP-62,20.4 µM (inactive)
same,GI50,HCT-116,29.6 µM (inactive)
same,GI50,SF-268,17.3 µM (inactive)
same,GI50,CAKI-1,27 µM (inactive)
same,GI50,LOX IMVI,40.6 µM (inactive)
same,GI50,DU-145,35.6 µM (inactive)
same,GI50,CCRF-CEM,21.5 µM (inactive)
same,GI50,HCC 2998,18.6 µM (inactive)
same,GI50,KM12,17 µM (inactive)
same,GI50,NCI-H23,20.2 µM (inactive)
same,GI50,COLO 205,23.6 µM (inactive)
same,GI50,SK-OV-3,42.6 µM (inactive)
same,GI50,IGROV-1,75.5 µM (inactive)
same,GI50,EKVX,23.1 µM (inactive)
same,GI50,NCI/ADR-RES,18 µM (inactive)
same,GI50,NCI-H460,21 µM (inactive)
same,GI50,SK-MEL-2,18.3 µM (inactive)
same,GI50,SN12C,29.3 µM (inactive)
same,GI50,K562,21.5 µM (inactive)
same,GI50,ACHN,22.8 µM (inactive)
same,GI50,MOLT-4,33.8 µM (inactive)
same,GI50,UACC-257,28.4 µM (inactive)
same,GI50,UACC-62,27.7 µM (inactive)
same,GI50,M14,34.8 µM (inactive)
same,GI50,SNB-19,19.7 µM (inactive)
same,GI50,MDA-MB-435,< 0.01 µM (active)
same,GI50,UO-31,20.7 µM (inactive)
same,GI50,SR,32.2 µM (inactive)
COc1ccccc1C1c2cc3c(cc2OC(N2CCCC2)C1C)OCO3 (stereo not drawn),GI50,RXF 393,3.76 µM (inactive)
same,GI50,NCI-H522,9.95 µM (inactive)
same,GI50,SK-MEL-5,14.5 µM (inactive)
same,GI50,MDA-N,11.1 µM (inactive)
same,GI50,OVCAR-3,15.7 µM (inactive)
same,GI50,OVCAR-8,21.2 µM (inactive)
same,GI50,HCT-15,17.2 µM
same,GI50,HOP-92,3.08 µM (inactive)
same,GI50,SF-295,16.7 µM (inactive)
same,GI50,HT-29,21.4 µM (inactive)
same,GI50,PC-3,16 µM (inactive)
same,GI50,TK-10,18.5 µM (inactive)
same,GI50,BT-549,16.8 µM (inactive)
same,GI50,SNB-75,12.9 µM (inactive)
same,GI50,786-0,16.8 µM (inactive)
same,GI50,U-251,18.8 µM (inactive)
same,GI50,T47D,13.9 µM (inactive)
same,GI50,OVCAR-5,19.2 µM (inactive)
same,GI50,OVCAR-4,21.6 µM (inactive)
same,GI50,A549,18.4 µM (inactive)
same,GI50,RPMI-8226,14.8 µM (inactive)
same,GI50,SK-MEL-28,20.4 µM (inactive)
same,GI50,MCF7,18.9 µM (inactive)
same,GI50,SF-539,14.9 µM (inactive)
same,GI50,HL-60,14.2 µM (inactive)
same,GI50,HOP-62,15.1 µM (inactive)
same,GI50,A498,15.2 µM (inactive)
same,GI50,HCT-116,14.8 µM (inactive)
same,GI50,SF-268,13.6 µM (inactive)
same,GI50,CAKI-1,9.84 µM (inactive)
same,GI50,LOX IMVI,16.9 µM (inactive)
same,GI50,DU-145,15.2 µM (inactive)
same,GI50,CCRF-CEM,19.5 µM (inactive)
same,GI50,HCC 2998,15.8 µM (inactive)
same,GI50,KM12,19.3 µM (inactive)
same,GI50,NCI-H23,18.3 µM (inactive)
same,GI50,COLO 205,18 µM (inactive)
same,GI50,Hs-578T,7.48 µM (inactive)
same,GI50,IGROV-1,19.3 µM (inactive)
same,GI50,EKVX,18.3 µM (inactive)
same,GI50,NCI/ADR-RES,18.5 µM (inactive)
same,GI50,NCI-H460,16.4 µM (inactive)
same,GI50,SW-620,18 µM (inactive)
same,GI50,SK-MEL-2,14.8 µM (inactive)
same,GI50,SN12C,17.1 µM (inactive)
same,GI50,K562,15.1 µM (inactive)
same,GI50,ACHN,14.5 µM (inactive)
same,GI50,MOLT-4,3.16 µM (inactive)
same,GI50,UACC-257,20.4 µM (inactive)
same,GI50,UACC-62,16.2 µM (inactive)
same,GI50,M14,13.7 µM (inactive)
same,GI50,SNB-19,17.9 µM (inactive)
same,GI50,MDA-MB-435,12.4 µM (inactive)
same,GI50,UO-31,10.4 µM (inactive)
same,GI50,Malme-3M,18.4 µM (inactive)
same,GI50,SR,6.21 µM (inactive)
